From patent US12077503B2, “Substituted cyclic amides and their use as herbicides” (FMC CORPORATION, priority 2015, dated 2024) come the findings set out here.

Format in all cases: in vivo
Assay [1] deals with ragweed (common ragweed, Ambrosia elatior). In words: Test A postemergence. The settings on record: Ambrosia artemisiifolia, post-emergence, 240 h, 125 g ai/ha, postemergence, visual injury rating after approximately 10 d; read-out: Ragweed plant response rating (0 to 100 scale, 0 no effect, 100 complete control). An outline of the steps:
(§1)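 Greenhouse, ~10 d after spray; visual injury vs untreated controls, 0 = no effect, 100 = complete control. Preemergence: directed soil spray over planted seeds. Postemergence: plants 2–10 cm, 1–2 leaf stage. Loam/sand blend. Compound in non-phytotoxic solvent with surfactant.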

The test system of assay [2] is wheat (Triticum aestivum). In words: Test A postemergence. The settings on record: Triticum aestivum, post-emergence, 240 h, 125 g ai/ha, postemergence, visual injury rating after approximately 10 d; read-out: Wheat plant response rating (0 to 100 scale, 0 no effect, 100 complete control). An outline of the steps: as §1
In assay [3] the test system is pigweed (Amaranthus retroflexus). The experiment in a line: Test A postemergence. The settings on record: Amaranthus retroflexus, post-emergence, 240 h, 125 g ai/ha, postemergence, visual injury rating after approximately 10 d; read-out: Pigweed plant response rating (0 to 100 scale, 0 no effect, 100 complete control). Summed up: as §1
Assay [4] has as its system ryegrass, Italian (Italian ryegrass, Lolium multiflorum). The experiment in a line: Test A postemergence. The settings on record: Lolium multiflorum, post-emergence, 240 h, 125 g ai/ha, postemergence, visual injury rating after approximately 10 d; read-out: Ryegrass, Italian plant response rating (0 to 100 scale, 0 no effect, 100 complete control). An outline of the steps:
as §1

For assay [5], the system named is barnyardgrass (Echinochloa crus-galli). In words: Test A postemergence. The note with it: Echinochloa crus-galli, post-emergence, 240 h, 125 g ai/ha, postemergence, visual injury rating after approximately 10 d; read-out: Barnyardgrass plant response rating (0 to 100 scale, 0 no effect, 100 complete control). Summed up: as §1
For assay [6], the system named is Kochia (Kochia scoparia). The experiment in a line: Test A postemergence. The settings on record: Bassia scoparia, post-emergence, 240 h, 125 g ai/ha, postemergence, visual injury rating after approximately 10 d; read-out: Kochia plant response rating (0 to 100 scale, 0 no effect, 100 complete control). Summed up: as §1
The next assay has as its system corn (Zea mays). The experiment in a line: Test A postemergence. The note with it: Zea mays, post-emergence, 240 h, 125 g ai/ha, postemergence, visual injury rating after approximately 10 d; read-out: Corn plant response rating (0 to 100 scale, 0 no effect, 100 complete control). Summed up:
as §1

Assay [7] relates to Galium (catchweed bedstraw, Galium aparine). In words: Test A postemergence. The settings on record: Galium, post-emergence, 240 h, 125 g ai/ha, postemergence, visual injury rating after approximately 10 d; read-out: Galium plant response rating (0 to 100 scale, 0 no effect, 100 complete control). An outline of the steps: as §1
The subject of assay [8] is giant foxtail (Setaria faberii). In words: Test A postemergence. The note with it: Setaria faberi, post-emergence, 240 h, 125 g ai/ha, postemergence, visual injury rating after approximately 10 d; read-out: Foxtail, Giant plant response rating (0 to 100 scale, 0 no effect, 100 complete control). An outline of the steps: as §1
For assay [9], the system named is ragweed (common ragweed, Ambrosia elatior). The experiment in a line: Test A preemergence. The settings on record: Ambrosia artemisiifolia, pre-emergence, 240 h. An outline of the steps: as §1
The test system of assay [10] is pigweed (Amaranthus retroflexus). In words: Test A preemergence. The note with it: Amaranthus retroflexus, pre-emergence, 240 h.
Assay [11] relates to ryegrass, Italian (Italian ryegrass, Lolium multiflorum). In words: Test A preemergence. The settings on record: Lolium multiflorum, pre-emergence, 240 h. Summed up:
as §1

Assay [12] relates to barnyardgrass (Echinochloa crus-galli). The experiment in a line: Test A preemergence. The settings on record: Echinochloa crus-galli, pre-emergence, 240 h. An outline of the steps:
as §1

The test system of assay [13] is Kochia (Kochia scoparia). The experiment in a line: Test A preemergence. The note with it: Bassia scoparia, pre-emergence, 240 h. An outline of the steps:
as §1

Assay [14] deals with giant foxtail (Setaria faberii). The experiment in a line: Test A preemergence. The note with it: Setaria faberi, pre-emergence, 240 h. An outline of the steps: as §1

Molecules are shown by their SMILES.

With `COc1ccc([C@H]2CN(C)C(=O)[C@@H]2C(=O)Nc2cccc(F)c2F)cc1OC` [Compound 853], the pest or weed control at 125 g/ha in assay [1] was determined as 0%; in [3], 0%; in [4] it was 0%; in [5] it was 90%; in the assay with Kochia (Kochia scoparia) [6], 0%; in [7], 0%. Moreover, the pest or weed control at 125 g/ha came out at 90% in [8]; 0% in assay [9] (125 g ai/ha, preemergence, 0 to 100 scale where 0 is no effect and 100 is complete control, read-out: Ragweed plant response rating); 40% in assay [10] (125 g ai/ha, preemergence, 0 to 100 scale where 0 is no effect and 100 is complete control, read-out: Pigweed plant response rating); 0% in [11] (125 g ai/ha, preemergence, 0 to 100 scale where 0 is no effect and 100 is complete control, read-out: Ryegrass, Italian plant response rating); 90% in assay [12] (125 g ai/ha, preemergence, 0 to 100 scale where 0 is no effect and 100 is complete control, read-out: Barnyardgrass plant response rating); 40% in the assay with Kochia (Kochia scoparia) [13] (125 g ai/ha, preemergence, 0 to 100 scale where 0 is no effect and 100 is complete control, read-out: Kochia plant response rating). Besides, the pest or weed control at 125 g/ha in [14] (125 g ai/ha, preemergence, 0 to 100 scale where 0 is no effect and 100 is complete control, read-out: Foxtail, Giant plant response rating) amounted to 90%. Also, the plant injury at 125 g/ha (in assay [2]; in the assay on corn (Zea mays)) was 0% throughout. Besides, the pest or weed control at 500 g/ha in [9] (500 g ai/ha, Preemergence, visual injury vs untreated controls after approximately 10 d, read-out: Ragweed plant response rating (0 to 100 scale where 0 is no effect and 100 is complete control)) was found to be 20%; in assay [10] (500 g ai/ha, Preemergence, visual injury vs untreated controls after approximately 10 d, read-out: Pigweed plant response rating (0 to 100 scale where 0 is no effect and 100 is complete control)), 40%; in [11] (500 g ai/ha, Preemergence, visual injury vs untreated controls after approximately 10 d, read-out: Ryegrass, Italian plant response rating (0 to 100 scale where 0 is no effect and 100 is complete control)) it was 60%; in assay [12] (500 g ai/ha, Preemergence, visual injury vs untreated controls after approximately 10 d, read-out: Barnyardgrass plant response rating (0 to 100 scale where 0 is no effect and 100 is complete control)), 100%; in the assay on Kochia (Kochia scoparia) [13] (500 g ai/ha, Preemergence, visual injury vs untreated controls after approximately 10 d, read-out: Kochia plant response rating (0 to 100 scale where 0 is no effect and 100 is complete control)), 40%; in assay [14] (500 g ai/ha, Preemergence, visual injury vs untreated controls after approximately 10 d, read-out: Foxtail, Giant plant response rating (0 to 100 scale where 0 is no effect and 100 is complete control)), 100%.
